Where two headings read alike, the source gives them in different places.
Key:
[1] = target: T1, Nav1.5^Mut sodium channel (mutated human Nav1.5) (Homo sapiens, UniProt Q14524, F1486Q/K1419C); format: cell-based
T1 construct: expressed in transfected cells; host or cells: HEK293 cells stably expressing the Cameleon (Venus/CFP) calcium biosensor; clone VC/Nav1.5 #12
Experimental: VC/Nav1.5 #12 cells were incubated with different concentrations of quinidine (FIG. 6A), sertralin (FIG. 6B) or paroxetine (FIG. 6C), and a first fluorescence reading was performed, (FVenus/FCFP)0. 25 mM Ca^2+ was added to activate the channel and a second fluorescence reading was performed, (FVenus/FCFP)ca2+. […] Error bars represent the standard deviation of experiments performed in triplicate;
The fluorescence intensity was measured using a Packard Fusion™ Universal Microplate Analyzer. 75,000 cells per well were analyzed in a bath solution containing 140 mM NaCl, 2 mM KCl, 1.5 mM CaCl2, 1 mM MgCl2, 10 mM glucose, and 10 mM Na-HEPES. For calcium measurements, the bath solution contained: 140 mM NaCl, 2 mM KCl, 25 mM CaCl2, 10 mM glucose and 10 mM Na-HEPES. The pH of the bath solutions was adjusted to pH 7.4 using 1N NaOH.
Dose-response experiments in the presence of known sodium channel blockers (quinidine, sertralin and paroxetine) were performed.

[2] = system: VC #7 control Cameleon HEK293 cell line; test: Cameleon FRET fluorescence microplate assay in control Cameleon cell line VC #7 (does not express a sodium channel); format: cell-based, human; conditions: VC #7 cell line that does not express a sodium channel; FIG. 4B
Excerpt: The reporter cell lines described herein are derived from the HEK293 cell line, which, in turn, is derived from human embryonic kidney. […] To generate a Nav1.5^Mut/Cameleon reporter cell line, the first step was to establish a HEK293 cell line which expresses the Cameleon calcium biosensor alone. HEK293 cells were transfected with a vector (pIREShyg3, Clonetech, Cat. No. 631620) encoding the Cameleon construct (as described in Evanko and Haydon, Cell Calcium (2005) 37: 341-348). This cell line that express the Cameleon alone was then stably transfected with the pcDNA4neo-Nav1.5^Mut expression vector (see FIG. 7A for the sequence of Nav1.5^Mut). […] The resulting cell lines were then assessed in patch-clamp for their capacity to produce robust current amplitude.
Cameleon is a fluorescent biosynthetic Ca^2+ indicator constructed by inserting a Ca^2+ sensor (Calmodulin and M13, a calmodulin-binding protein) between two mutated forms of green fluorescent protein (GFP): the energy acceptor Venus, a derivative of yellow fluorescent protein (YFP), and the energy donor, cyan fluorescent protein (CFP) (Evanko D S and Haydon P G, Cell calcium 2005, 37: 341-348). Cameleon fluorescence is affected by differences in the concentration of Ca^2+ that alter the amount of fluorescence resonance energy transfer (FRET) between CFP and Venus. […]

[3] = system: HEK293 Cameleon cell line (intracellular Ca2+); test: Confocal microscopy FRET ratio in HEK293 cell line stably expressing the Cameleon biosensor alone; format: cell-based, human; conditions: 10 μM ionomycin, ratio versus time, FIG. 3B
Experimental: FIG. 3A: Individual Venus (right panel) and CFP (left panel) fluorescence image taken with a 40× objective. FIG. 3B: Plot of FRET ratio (Venus/CFP) versus time following addition of 10 μM ionomycin;
A HEK293 cell line stably expressing the Cameleon biosensor alone was treated with ionomycin (10 μM), a calcium ionophore, to raise the intracellular level of Ca^2+, and the FRET ratio was analysed by confocal microscopy.

C[C@H](CCC(=O)O)C[C@H](C)C[C@H](C)C(=O)/C=C(\O)[C@H](C)C[C@H](C)C/C=C/[C@@H](C)[C@@H](O)[C@@H](C)[C@@H](O)C[C@@H]1CC[C@@](C)([C@H]2CC[C@@](C)([C@@H](C)O)O2)O1 [ionomycin] was tested, and the “FRET response to treatment” value ([1]; VC/Nav1.5 #12 and #14 cell lines, FIG. 4B) was “respond”, the “FRET response to treatment” value [2] was “respond only to ionomycin” and the “FRET ratio (Venus/CFP)” value [3] was “increase in the Venus/CFP ratio”.
For Fc1ccc([C@@H]2CCNC[C@H]2COc2ccc3c(c2)OCO3)cc1 [paroxetine], the “Delta FRET ratio signal, (FVenus/FCFP)Ca2+/(FVenus/FCFP)0” value ([1]; VC/Nav1.5 #12 cells, increasing doses of blocker, 25 mM Ca2+ added to activate the channel, compared to control cells receiving buffer only, FIG. 6) was “decrease in the Delta FRET ratio signal”.
With C=C[C@H]1C[N@@]2CC[C@H]1C[C@@H]2[C@@H](O)c1ccnc2ccc(OC)cc12 [quinidine] the “Delta FRET ratio signal, (FVenus/FCFP)Ca2+/(FVenus/FCFP)0” value [1] was “decrease in the Delta FRET ratio signal”.
In the case of CN[C@H]1CC[C@@H](c2ccc(Cl)c(Cl)c2)c2ccccc21 [sertralin], the “Delta FRET ratio signal, (FVenus/FCFP)Ca2+/(FVenus/FCFP)0” value [1] is reported as “decrease in the Delta FRET ratio signal”.

From patent US8551693B2 (priority 2008, dated 2013)
